Where “and” joins values, the source holds several entries; their conditions need not be identical. Equal entries are not always repeated. Toxic doses and inconclusive results are not listed.
System: AKR/Lw mice, AKR lymphoma ip, median survival T/C
Experiment: NCI In Vivo Anticancer Drug Screen. Data for tumor model Lymphoma AKR (Transplanted) (intraperitoneal) in AKR/Lw mice
Settings: endpoint: median survival time, higher = longer survival
Protocol: The antitumor activity of compounds was measured in mice bearing transplantable tumors. Survival or tumor size were measured and the results are expressed as the measurement made in the treated group (T) divided by the measurement made in the vehicle treated control group (C). The tumor model used in this assay is Lymphoma AKR (Transplanted) (intraperitoneal) in AKR/Lw mice

[1] = dose: 100.0 mg/kg/injection, schedule: Q01DX001 (ip), vehicle: saline with Tween-80
[2] = dose: 100.0 mg/kg/injection, schedule: Q01DX001 (ip), vehicle: Klucel (hydroxypropylcellulose) (HPC)
[3] = dose: 200.0 mg/kg/injection, schedule: Q01DX001 (ip), vehicle: Klucel (hydroxypropylcellulose) (HPC)
[4] = dose: 400.0 mg/kg/injection, schedule: Q01DX001 (ip), vehicle: Klucel (hydroxypropylcellulose) (HPC)
[5] = dose: 100.0 mg/kg/injection, schedule: Q04DX003 (ip), vehicle: Klucel (hydroxypropylcellulose) (HPC)
[6] = dose: 200.0 mg/kg/injection, schedule: Q04DX003 (ip), vehicle: Klucel (hydroxypropylcellulose) (HPC)

Q: `O=NN(CCCl)C(=O)NC1CCCCC1` was tested. Which T/C (dose: 2.0 mg/kg/injection, schedule: Q04DX003 (ip), vehicle: Klucel (hydroxypropylcellulose) (HPC)) did it give?
A: 102 % of control

Q: And the T/C (dose: 2.5 mg/kg/injection, schedule: Q01DX001 (ip), vehicle: Klucel (hydroxypropylcellulose) (HPC))?
A: 109 % of control

Q: And the T/C (dose: 4.4 mg/kg/injection, schedule: Q04DX003 (ip), vehicle: Klucel (hydroxypropylcellulose) (HPC))?
A: 106 % of control

Q: What about the T/C (dose: 5.0 mg/kg/injection, schedule: Q01DX001 (ip), vehicle: Klucel (hydroxypropylcellulose) (HPC)) of the same compound?
A: 111 % of control

Q: What about the T/C (dose: 5.0 mg/kg/injection, schedule: Q04DX004 (ip), vehicle: Klucel (hydroxypropylcellulose) (HPC)) of the same compound?
A: 100 % of control

Q: What about the T/C (dose: 6.25 mg/kg/injection, schedule: Q07DX003 (ip), vehicle: saline) of the same compound?
A: 109 % of control

Q: And the T/C (dose: 6.7 mg/kg/injection, schedule: Q04DX003 (ip), vehicle: Klucel (hydroxypropylcellulose) (HPC))?
A: 122 % of control

Q: And the T/C (dose: 7.0 mg/kg/injection, schedule: Q01DX001 (ip), vehicle: Klucel (hydroxypropylcellulose) (HPC))?
A: 165 % of control

Q: What about the T/C (dose: 10.0 mg/kg/injection, schedule: Q04DX003 (ip), vehicle: Klucel (hydroxypropylcellulose) (HPC)) of the same compound?
A: 115 % of control

Q: And the T/C (dose: 10.0 mg/kg/injection, schedule: Q04DX004 (ip), vehicle: Klucel (hydroxypropylcellulose) (HPC))?
A: 100 % of control

Q: What about the T/C (dose: 12.5 mg/kg/injection, schedule: Q07DX003 (ip), vehicle: saline) of the same compound?
A: 96 % of control and 115 % of control and 118 % of control

Q: And the T/C (dose: 25.0 mg/kg/injection, schedule: Q01DX001 (ip), vehicle: saline with Tween-80)?
A: 159 % of control

Q: What about the T/C (dose: 25.0 mg/kg/injection, schedule: Q01DX001 (ip), vehicle: saline) of the same compound?
A: 106 % of control and 115 % of control

Q: What about the T/C (dose: 25.0 mg/kg/injection, schedule: Q07DX003 (ip), vehicle: saline) of the same compound?
A: 106 % of control and 109 % of control

Q: What about the T/C (dose: 50.0 mg/kg/injection, schedule: Q01DX001 (ip), vehicle: saline with Tween-80) of the same compound?
A: 365 % of control

Q: What about the T/C (dose: 50.0 mg/kg/injection, schedule: Q01DX001 (ip), vehicle: saline) of the same compound?
A: 115 % of control

Q: What about the T/C [1] of the same compound?
A: 218 % of control

Q: Which results are given for `S=C1NC(c2ccccc2)NC(c2ccccc2)S1` (centres undefined)?
A: T/C [2]: 92 % of control; T/C [3]: 92 % of control; T/C [4]: 96 % of control

Q: How did the T/C [2] turn out when `CN(CCOc1ccccc1O)CCOc1ccccc1O` was run?
A: 105 % of control

Q: And the T/C [5]?
A: 100 % of control

Q: And the T/C [3]?
A: 107 % of control

Q: What about the T/C [6] of the same compound?
A: 92 % of control

Q: And the T/C [4]?
A: 105 % of control

Q: With `CCOC(=O)N(CC)c1ccccc1` as the compound, how does the T/C [2] read?
A: 109 % of control

Q: And the T/C [5]?
A: 113 % of control

Q: And the T/C [3]?
A: 111 % of control

Q: And the T/C [6]?
A: 94 % of control

Q: And the T/C [4]?
A: 100 % of control

Q: What about the T/C (dose: 400.0 mg/kg/injection, schedule: Q04DX003 (ip), vehicle: Klucel (hydroxypropylcellulose) (HPC)) of the same compound?
A: 98 % of control

Q: Which T/C [1] does the source give for `Nc1ccccc1SC1CC(=O)N(c2ccccc2)C1=O` (centres undefined) here?
A: 94 % of control

Q: What about the T/C (dose: 200.0 mg/kg/injection, schedule: Q01DX001 (ip), vehicle: saline with Tween-80) of the same compound?
A: 94 % of control

Q: And the T/C (dose: 400.0 mg/kg/injection, schedule: Q01DX001 (ip), vehicle: saline with Tween-80)?
A: 94 % of control
